Data published in ChEMBL document CHEMBL1136546, “SLV310, a novel, potential antipsychotic, combining potent dopamine D2 receptor antagonism with serotonin reuptake inhibition” (Bioorg Med Chem Lett, 2003).

Tests used:
[1] = target: Sodium-dependent serotonin transporter (Rattus norvegicus, UniProt P31652); assay: In vitro binding affinity for serotonin reuptake sites in rat frontal cortex membranes by [3H]paroxetine displacement.; assay type: cell membranes, Membrane
[2] = target: D(2) dopamine receptor (Homo sapiens, UniProt P14416); assay: In vitro binding affinity at human cloned dopamine receptor D2 (long) stably expressed in CHO cells by [3H]spiperone displacement.; assay type: cell-based
Chain of D(2) dopamine receptor (P14416 whole entry): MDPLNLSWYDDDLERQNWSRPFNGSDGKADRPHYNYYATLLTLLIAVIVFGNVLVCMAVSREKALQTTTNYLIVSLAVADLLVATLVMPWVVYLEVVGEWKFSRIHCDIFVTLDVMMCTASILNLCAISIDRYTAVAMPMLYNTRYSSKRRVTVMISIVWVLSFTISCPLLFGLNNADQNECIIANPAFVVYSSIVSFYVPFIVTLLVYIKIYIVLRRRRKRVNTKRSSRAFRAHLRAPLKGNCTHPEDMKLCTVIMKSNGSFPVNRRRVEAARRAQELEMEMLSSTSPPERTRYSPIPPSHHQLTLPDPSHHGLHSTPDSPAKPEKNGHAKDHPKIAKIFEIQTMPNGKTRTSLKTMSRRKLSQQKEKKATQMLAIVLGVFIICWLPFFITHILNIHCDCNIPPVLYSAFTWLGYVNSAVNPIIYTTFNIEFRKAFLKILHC

[3] = test system: Mus musculus; assay: Dopaminergic antagonistic activity was determined in vivo by antagonising apomorphine induced climbing behavior (APO) in mice by oral administration; assay type: functional
[4] = test system: Mus musculus; assay: Serotonin reuptake activity was determined in vivo by potentiation of 5-hydroxytryptophan induced serotonin syndrome like behavior in mice by oral administration; assay type: functional
[5] = test system: Rattus norvegicus; assay: Effective dose to exhibit antipsychotic potency after oral administration in rats was determined; assay type: functional

Chain of Sodium-dependent serotonin transporter (P31652 whole entry): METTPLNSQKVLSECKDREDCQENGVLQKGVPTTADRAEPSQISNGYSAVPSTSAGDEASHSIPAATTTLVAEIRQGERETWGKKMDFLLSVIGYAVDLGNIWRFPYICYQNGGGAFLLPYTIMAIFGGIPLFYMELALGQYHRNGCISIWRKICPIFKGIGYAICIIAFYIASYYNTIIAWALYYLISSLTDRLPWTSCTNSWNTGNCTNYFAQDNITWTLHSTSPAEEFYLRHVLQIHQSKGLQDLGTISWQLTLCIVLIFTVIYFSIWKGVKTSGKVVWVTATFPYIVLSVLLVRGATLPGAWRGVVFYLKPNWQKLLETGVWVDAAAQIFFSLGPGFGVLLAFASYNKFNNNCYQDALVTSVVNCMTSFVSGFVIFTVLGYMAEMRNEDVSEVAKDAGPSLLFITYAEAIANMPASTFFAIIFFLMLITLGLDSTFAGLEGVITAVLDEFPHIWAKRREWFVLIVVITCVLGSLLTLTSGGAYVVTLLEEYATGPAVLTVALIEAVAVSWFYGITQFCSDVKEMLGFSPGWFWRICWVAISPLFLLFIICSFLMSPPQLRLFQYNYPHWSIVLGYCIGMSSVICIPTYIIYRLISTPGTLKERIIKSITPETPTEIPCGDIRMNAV

## Cc1cccc2c1C(=O)N(CCCCCN1CC=C(c3c[nH]c4ccc(F)cc34)CC1)C2=O
[1]
  Ki: 1 nM
[2]
  Ki: 25 nM

## Cc1cccc2c1C(=O)N(CCCCCN1CC=C(c3c[nH]c4ccccc34)CC1)C2=O
[1]
  Ki: 1 nM
[2]
  Ki: 100 nM

## Cc1ccc2c(c1)C(=O)N(CCCCCN1CC=C(c3c[nH]c4ccccc34)CC1)C2=O
[1]
  Ki: 2 nM
[2]
  Ki: 40 nM

## O=C1c2ccccc2C(=O)N1CCCCCN1CC=C(c2c[nH]c3ccc(Cl)cc23)CC1
[1]
  Ki: 16 nM
[2]
  Ki: 20 nM

## O=C1c2ccc(F)cc2C(=O)N1CCCCCN1CC=C(c2c[nH]c3ccc(F)cc23)CC1
[3]
  ED50: 5 mg/kg
[1]
  Ki: 1.3 nM
[4]
  ED50: 10 mg/kg
[2]
  Ki: 10 nM

## O=C(CCCN1CCC(O)(c2ccc(Cl)cc2)CC1)c1ccc(F)cc1 [HALOPERIDOL]
[3]
  ED50: 0.1 mg/kg

## C1=C(c2c[nH]c3ccccc23)CCNC1
[1]
  Ki: 6 nM

## O=C1c2ccccc2C(=O)N1CCCCCN1CC=C(c2c[nH]c3ccc(F)cc23)CC1
[3]
  ED50: 5.6 mg/kg
[1]
  Ki: 2.5 nM
[4]
  ED50: 5.9 mg/kg
[2]
  Ki: 5 nM
[5]
  ED50: 17.5 mg/kg

## Cc1ccc2c(c1)C(=O)N(CCCCCN1CC=C(c3c[nH]c4ccc(F)cc34)CC1)C2=O
[1]
  Ki: 3 nM
[2]
  Ki: 20 nM

## O=C1c2ccccc2C(=O)N1CCCCN1CC=C(c2c[nH]c3ccc(F)cc23)CC1
[1]
  Ki: 0.6 nM
[2]
  Ki: 16 nM

## Cc1cccc2c(C3=CCN(CCCCCN4C(=O)c5ccccc5C4=O)CC3)c[nH]c12
[1]
  Ki: 1.3 nM
[2]
  Ki: 40 nM

## O=C1c2cccc(F)c2C(=O)N1CCCCCN1CC=C(c2c[nH]c3ccccc23)CC1
[3]
  ED50: > 20 mg/kg
[1]
  Ki: 0.8 nM
[4]
  ED50: < 50 mg/kg
[2]
  Ki: 25 nM

## O=C1c2cccc(F)c2C(=O)N1CCCCCN1CC=C(c2c[nH]c3ccc(F)cc23)CC1
[3]
  ED50: 6.1 mg/kg
[1]
  Ki: 0.4 nM
[4]
  ED50: 10 mg/kg
[2]
  Ki: 12 nM

## O=C1c2ccccc2C(=O)N1CCCCCCCN1CC=C(c2c[nH]c3ccc(F)cc23)CC1
[1]
  Ki: 0.8 nM
[2]
  Ki: 25 nM

## O=C1c2ccccc2C(=O)N1CCCN1CC=C(c2c[nH]c3ccc(F)cc23)CC1
[1]
  Ki: 25 nM
[2]
  Ki: 20 nM

## O=C1c2ccc(F)cc2C(=O)N1CCCCCN1CC=C(c2c[nH]c3ccccc23)CC1
[1]
  Ki: 2 nM
[2]
  Ki: 40 nM

## c1ccc2c(CCC3CCNCC3)c[nH]c2c1 [INDALPINE]
[2]
  Ki: > 1000 nM

## O=C(CCCN1CCC(CCc2c[nH]c3ccccc23)CC1)c1ccc(F)cc1
[3]
  ED50: 11 mg/kg
[1]
  Ki: 2 nM
[4]
  ED50: > 30 mg/kg
[2]
  Ki: 40 nM

## O=C1c2ccccc2C(=O)N1CCCCCN1CC=C(c2c[nH]c3ccccc23)CC1
[3]
  ED50: 14 mg/kg
[1]
  Ki: 2.5 nM
[4]
  ED50: 7.1 mg/kg
[2]
  Ki: 25 nM
